# ChEMBL document CHEMBL1201862, “PubChem BioAssay data set” (2004)
# Calls of active or inactive are those of the source.
# How the values were obtained:
# Large T antigen = Large T antigen (Simian virus 40, UniProt P03070); type: functional, Betapolyomavirus macacae;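 further: Confirmatory-stage PubChem screen for compounds that inhibit SV40 T antigen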
# Genome polyprotein = Genome polyprotein (dengue virus type 2, UniProt P29990); experiment: flavivirus cap methylation enzyme inhibition – biochemical, confirmation dose response, primary screen (AID 588689); type: functional
# Chain of Genome polyprotein (P29990 2492-3391 limits assumed): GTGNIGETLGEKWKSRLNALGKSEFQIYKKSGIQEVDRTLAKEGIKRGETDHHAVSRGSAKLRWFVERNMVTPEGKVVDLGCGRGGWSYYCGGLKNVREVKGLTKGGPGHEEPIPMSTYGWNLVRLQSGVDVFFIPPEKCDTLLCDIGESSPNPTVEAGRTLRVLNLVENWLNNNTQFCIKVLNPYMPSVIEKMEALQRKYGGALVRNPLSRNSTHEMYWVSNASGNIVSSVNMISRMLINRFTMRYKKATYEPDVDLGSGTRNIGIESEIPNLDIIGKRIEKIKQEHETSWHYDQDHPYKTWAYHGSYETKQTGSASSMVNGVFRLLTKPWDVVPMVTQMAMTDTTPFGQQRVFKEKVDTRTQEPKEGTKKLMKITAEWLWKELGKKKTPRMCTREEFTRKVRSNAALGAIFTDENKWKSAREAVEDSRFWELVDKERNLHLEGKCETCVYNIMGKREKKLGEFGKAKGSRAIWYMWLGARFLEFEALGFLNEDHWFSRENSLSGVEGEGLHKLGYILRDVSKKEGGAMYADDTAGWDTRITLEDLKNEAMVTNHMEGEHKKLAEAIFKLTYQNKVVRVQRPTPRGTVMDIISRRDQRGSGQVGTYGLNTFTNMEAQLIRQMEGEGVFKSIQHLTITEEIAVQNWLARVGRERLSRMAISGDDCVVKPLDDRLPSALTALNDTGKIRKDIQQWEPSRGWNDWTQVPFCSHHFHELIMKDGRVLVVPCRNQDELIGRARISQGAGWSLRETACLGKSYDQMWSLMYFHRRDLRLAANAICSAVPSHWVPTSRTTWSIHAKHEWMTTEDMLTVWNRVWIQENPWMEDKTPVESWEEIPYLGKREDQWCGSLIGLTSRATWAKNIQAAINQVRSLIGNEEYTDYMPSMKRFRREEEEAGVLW
# Coagulation factor XII = molecular target: T1, Coagulation factor XII (Homo sapiens, UniProt P00748); type: functional;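 further: activated factor XIIa alpha cleaving a fluorogenic AMC peptide substrate; inhibitor potency from loss of enzyme activity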
# T1 sequence (P00748 whole entry): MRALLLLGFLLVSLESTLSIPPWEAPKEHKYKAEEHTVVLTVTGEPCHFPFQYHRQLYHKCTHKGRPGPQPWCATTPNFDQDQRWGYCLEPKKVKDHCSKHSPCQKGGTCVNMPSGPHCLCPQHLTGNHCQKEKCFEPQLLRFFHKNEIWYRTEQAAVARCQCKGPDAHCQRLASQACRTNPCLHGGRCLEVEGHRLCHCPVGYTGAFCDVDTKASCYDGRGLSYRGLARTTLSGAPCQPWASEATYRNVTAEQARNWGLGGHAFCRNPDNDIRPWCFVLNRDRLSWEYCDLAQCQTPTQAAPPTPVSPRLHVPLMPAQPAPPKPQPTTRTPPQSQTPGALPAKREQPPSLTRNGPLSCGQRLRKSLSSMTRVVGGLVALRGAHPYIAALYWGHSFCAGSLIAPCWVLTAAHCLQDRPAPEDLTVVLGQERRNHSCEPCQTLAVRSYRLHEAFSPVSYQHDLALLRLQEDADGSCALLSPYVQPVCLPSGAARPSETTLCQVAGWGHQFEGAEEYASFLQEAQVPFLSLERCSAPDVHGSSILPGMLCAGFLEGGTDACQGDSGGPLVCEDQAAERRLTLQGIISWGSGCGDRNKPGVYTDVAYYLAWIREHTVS
# Cytochrome P450 2C9 = Cytochrome P450 2C9 (Homo sapiens, UniProt P11712)
# Chain of Cytochrome P450 2C9 (P11712 whole entry): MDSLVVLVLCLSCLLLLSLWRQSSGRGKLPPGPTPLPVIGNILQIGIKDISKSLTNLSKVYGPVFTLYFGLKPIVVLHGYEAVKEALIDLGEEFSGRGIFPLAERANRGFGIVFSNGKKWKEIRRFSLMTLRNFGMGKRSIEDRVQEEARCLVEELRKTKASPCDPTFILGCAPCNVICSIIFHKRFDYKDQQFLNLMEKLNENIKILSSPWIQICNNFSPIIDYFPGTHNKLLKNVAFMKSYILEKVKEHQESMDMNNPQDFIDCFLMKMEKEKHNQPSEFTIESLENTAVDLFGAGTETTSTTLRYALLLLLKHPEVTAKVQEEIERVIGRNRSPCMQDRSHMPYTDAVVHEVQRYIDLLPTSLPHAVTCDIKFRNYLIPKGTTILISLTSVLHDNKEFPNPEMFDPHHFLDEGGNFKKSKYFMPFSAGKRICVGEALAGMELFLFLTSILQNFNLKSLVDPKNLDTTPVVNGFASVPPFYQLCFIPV
# Cytochrome P450 3A4 = Cytochrome P450 3A4 (Homo sapiens, UniProt P08684);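 further: CYP3A4 tested as one member of a cytochrome P450 panel screen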
# Chain of Cytochrome P450 3A4 (P08684 whole entry): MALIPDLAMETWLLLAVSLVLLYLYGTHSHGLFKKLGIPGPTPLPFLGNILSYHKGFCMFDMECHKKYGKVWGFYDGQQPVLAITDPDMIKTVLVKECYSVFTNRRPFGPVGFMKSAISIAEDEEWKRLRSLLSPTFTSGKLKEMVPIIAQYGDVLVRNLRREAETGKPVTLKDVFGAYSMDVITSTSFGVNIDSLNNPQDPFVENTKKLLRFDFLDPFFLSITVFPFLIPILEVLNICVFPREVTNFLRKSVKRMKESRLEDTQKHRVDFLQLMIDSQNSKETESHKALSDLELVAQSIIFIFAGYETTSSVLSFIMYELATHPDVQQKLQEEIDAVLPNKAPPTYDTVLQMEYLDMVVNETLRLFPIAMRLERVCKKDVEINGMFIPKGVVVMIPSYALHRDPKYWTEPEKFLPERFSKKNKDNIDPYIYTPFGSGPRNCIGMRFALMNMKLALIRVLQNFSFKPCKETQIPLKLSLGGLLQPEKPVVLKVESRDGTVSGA
# Cytochrome P450 2C19 = Cytochrome P450 2C19 (Homo sapiens, UniProt P33261); experiment: Cytochrome panel assay with activity outcomes. Panel member name: p450-cyp2c19 Compounds with AC50 equal or less than 10 uM are considered active; type: functional; details: read-out: AC50
# Chain of Cytochrome P450 2C19 (P33261 whole entry): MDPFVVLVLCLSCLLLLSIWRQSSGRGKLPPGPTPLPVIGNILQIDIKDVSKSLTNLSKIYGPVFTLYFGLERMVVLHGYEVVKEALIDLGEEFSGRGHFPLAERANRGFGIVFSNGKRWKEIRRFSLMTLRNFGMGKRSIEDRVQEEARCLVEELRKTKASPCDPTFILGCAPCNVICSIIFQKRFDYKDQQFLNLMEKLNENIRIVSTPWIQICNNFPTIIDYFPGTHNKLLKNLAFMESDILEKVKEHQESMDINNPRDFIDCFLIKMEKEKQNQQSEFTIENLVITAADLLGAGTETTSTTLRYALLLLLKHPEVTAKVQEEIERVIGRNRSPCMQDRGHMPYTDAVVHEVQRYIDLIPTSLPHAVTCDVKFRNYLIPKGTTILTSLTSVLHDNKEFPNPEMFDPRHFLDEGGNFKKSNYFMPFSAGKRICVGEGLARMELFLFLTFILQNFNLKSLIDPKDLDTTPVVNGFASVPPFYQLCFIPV
# [1] = viability of HCT116 lacking mutant beta-catenin – cell-based, human colon tumor, dose response (AID 1045); type: functional;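 further: HCT116 colon tumor cells with beta catenin knocked out; cells exposed to compound for 60 hours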
# [2] = viability of PTEN-deleted HCT116 cells – cell-based, HCT116 PTEN knockout, dose response (AID 1047); type: functional;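 further: HCT116 colon tumor cells with PTEN knocked out; cells exposed to compound for 60 hours before readout; potency for loss of cell viability measured by luminescence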
# [3] = viability of uninfected HEp-2 cells – cell-based, HTS, cytotoxicity control for RSV inhibitor project, dose response (AID 2410); type: functional; details: human respiratory syncytial virus
# [4] = molecular target: FAD-linked sulfhydryl oxidase ALR (Homo sapiens, UniProt P55789); experiment: ALR-catalysed DTT oxidation blockers – biochemical, H2O2 detection, luminescence, cherry-pick, dose response (AID 493248)
# Chain of FAD-linked sulfhydryl oxidase ALR (P55789 whole entry): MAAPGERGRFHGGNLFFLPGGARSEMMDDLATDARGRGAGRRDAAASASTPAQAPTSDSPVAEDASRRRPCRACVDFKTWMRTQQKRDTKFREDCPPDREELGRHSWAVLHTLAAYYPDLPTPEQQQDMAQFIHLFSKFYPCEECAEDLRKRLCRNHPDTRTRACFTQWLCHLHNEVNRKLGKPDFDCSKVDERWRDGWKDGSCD
# Cytochrome P450 1A2 = molecular target: T2, Cytochrome P450 1A2 (Homo sapiens, UniProt P05177);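 further: PubChem cytochrome P450 panel assay, CYP1A2 panel member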
# T2 sequence (P05177 whole entry): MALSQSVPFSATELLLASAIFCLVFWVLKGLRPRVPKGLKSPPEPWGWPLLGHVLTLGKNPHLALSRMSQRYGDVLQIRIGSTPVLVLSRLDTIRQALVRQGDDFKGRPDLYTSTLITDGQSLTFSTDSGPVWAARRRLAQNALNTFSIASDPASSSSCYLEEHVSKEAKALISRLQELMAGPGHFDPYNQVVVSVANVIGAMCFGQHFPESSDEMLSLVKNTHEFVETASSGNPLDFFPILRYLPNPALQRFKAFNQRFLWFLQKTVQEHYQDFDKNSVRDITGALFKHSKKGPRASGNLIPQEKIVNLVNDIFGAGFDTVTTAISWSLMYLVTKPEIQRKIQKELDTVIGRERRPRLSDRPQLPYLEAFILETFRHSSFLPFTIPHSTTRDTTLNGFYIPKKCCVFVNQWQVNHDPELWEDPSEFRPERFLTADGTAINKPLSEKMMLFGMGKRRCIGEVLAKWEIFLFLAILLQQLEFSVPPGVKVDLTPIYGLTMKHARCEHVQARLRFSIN
# [5] = molecular target: Luciferin 4-monooxygenase (Photinus pyralis, UniProt P08659); experiment: inhibition of purified Photinus pyralis luciferase – biochemical, luminescence, dose response (AID 1891)
# Chain of Luciferin 4-monooxygenase (P08659 whole entry): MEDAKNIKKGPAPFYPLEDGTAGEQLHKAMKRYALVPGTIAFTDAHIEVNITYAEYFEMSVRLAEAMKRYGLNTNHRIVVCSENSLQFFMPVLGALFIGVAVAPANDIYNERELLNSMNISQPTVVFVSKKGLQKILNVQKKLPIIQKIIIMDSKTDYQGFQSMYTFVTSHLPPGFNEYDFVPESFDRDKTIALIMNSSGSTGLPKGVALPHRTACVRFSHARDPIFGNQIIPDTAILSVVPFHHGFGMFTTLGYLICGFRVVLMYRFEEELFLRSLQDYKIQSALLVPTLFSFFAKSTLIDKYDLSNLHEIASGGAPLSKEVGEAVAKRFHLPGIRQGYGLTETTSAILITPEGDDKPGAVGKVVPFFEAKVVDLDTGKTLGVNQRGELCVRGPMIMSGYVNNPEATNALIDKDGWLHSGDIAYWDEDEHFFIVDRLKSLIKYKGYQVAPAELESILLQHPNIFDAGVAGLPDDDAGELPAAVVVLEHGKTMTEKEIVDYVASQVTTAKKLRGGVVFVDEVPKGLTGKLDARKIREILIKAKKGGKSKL
# [6] = Luminescence Cell-Based Dose Confirmation HTS to Identify Inhibitors of Platelet Dense Granule Release. [Related pubchem assays: 1663 (Primary HTS), 1678 (Summary of Project)]; type: functional
# [7] = molecular target: T3, Zinc finger protein mex-5 (Caenorhabditis elegans, UniProt Q9XUB2); experiment: potency of MEX-5 RNA-binding blockers – biochemical, C. elegans, fluorescence polarization, dose response (AID 1960)
# T3 sequence (Q9XUB2 whole entry): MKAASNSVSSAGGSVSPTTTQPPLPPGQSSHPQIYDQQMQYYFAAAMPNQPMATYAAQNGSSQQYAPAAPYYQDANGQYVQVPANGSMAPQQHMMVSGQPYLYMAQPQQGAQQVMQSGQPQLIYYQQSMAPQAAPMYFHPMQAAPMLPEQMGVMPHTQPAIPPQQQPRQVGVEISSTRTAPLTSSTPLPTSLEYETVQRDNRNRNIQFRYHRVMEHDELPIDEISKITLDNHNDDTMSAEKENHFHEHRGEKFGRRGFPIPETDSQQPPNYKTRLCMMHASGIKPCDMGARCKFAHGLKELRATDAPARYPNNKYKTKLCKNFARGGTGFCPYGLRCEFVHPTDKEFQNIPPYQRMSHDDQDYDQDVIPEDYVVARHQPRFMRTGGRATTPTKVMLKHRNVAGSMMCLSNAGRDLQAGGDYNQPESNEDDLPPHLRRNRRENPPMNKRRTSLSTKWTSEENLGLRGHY
# Streptococcus = experiment: GAS UMAA2166 growth inhibition – luminescence, BacTiterGlo, counter-screen for streptokinase expression inhibitor project, dose response (AID 1915); type: functional, organism-based;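 further: potency for reduction of bacterial viability or growth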
# Streptokinase A = molecular target: T4, Streptokinase A (Streptococcus pyogenes serotype M1, UniProt P10520); experiment: viability-normalized secreted streptokinase activity reduction – plasminogen activation absorbance, OD405, dose response (AID 1914); type: functional, Streptococcus pyogenes M1 GAS;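 further: secreted streptokinase activity via plasminogen activation per viability signal from cell pellet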
# T4 sequence (P10520 whole entry): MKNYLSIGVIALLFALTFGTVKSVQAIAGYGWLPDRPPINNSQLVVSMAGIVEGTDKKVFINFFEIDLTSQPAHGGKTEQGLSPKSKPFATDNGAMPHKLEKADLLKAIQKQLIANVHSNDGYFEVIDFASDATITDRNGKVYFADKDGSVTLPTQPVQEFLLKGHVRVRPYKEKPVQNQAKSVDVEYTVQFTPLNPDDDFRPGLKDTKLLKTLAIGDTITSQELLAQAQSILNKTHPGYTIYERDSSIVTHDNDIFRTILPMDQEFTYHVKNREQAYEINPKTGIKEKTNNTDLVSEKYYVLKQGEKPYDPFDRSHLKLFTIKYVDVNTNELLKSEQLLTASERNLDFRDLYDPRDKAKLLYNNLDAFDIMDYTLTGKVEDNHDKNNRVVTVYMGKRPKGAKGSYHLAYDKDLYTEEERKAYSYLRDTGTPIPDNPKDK
# [8] = tested on: Streptococcus sp. 'group A'; experiment: Streptococcus pyogenes SK(-)GAS viability under kanamycin – luminescence, BacTiterGlo, confirmation, counter-screen for streptokinase expression inhibitor project, dose response (AID 1900); type: functional, organism-based
# [9] = molecular target: T5, RNA-binding protein pos-1 (Caenorhabditis elegans, UniProt G5EF15); experiment: disruptors of C. elegans POS-1 RNA interaction – biochemical, fluorescence polarization, dose response (AID 1964);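 further: purified POS-1 fused to maltose binding protein made in E. coli; potency of compounds blocking POS-1 binding to fluorescent RNA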
# T5 sequence (G5EF15 whole entry): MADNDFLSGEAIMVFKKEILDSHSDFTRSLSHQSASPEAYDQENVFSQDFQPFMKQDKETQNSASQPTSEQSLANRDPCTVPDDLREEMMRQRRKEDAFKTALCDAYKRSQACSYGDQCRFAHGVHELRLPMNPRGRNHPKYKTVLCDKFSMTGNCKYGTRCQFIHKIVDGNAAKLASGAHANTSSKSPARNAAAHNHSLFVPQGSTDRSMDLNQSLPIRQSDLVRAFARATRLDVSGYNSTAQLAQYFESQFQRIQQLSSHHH
# [10] = reduction of Shn3 3'UTR-driven luciferase in osteoblasts – cell-based, Clone20 osteoblasts, firefly luciferase, cherry-picked, dose response (AID 624132); type: functional;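 further: firefly luciferase luminescence from reporter carrying the Shn3 3'UTR in osteoblasts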
# [11] = non-specific 3'UTR reporter inhibition in Clone20-Shn3RL – cell-based, Renilla luciferase, cherry-picked, counter-screen for Shn3 inhibitor project, dose response (AID 624133); type: functional
# [12] = molecular target: T6, Rac GTPase-activating protein 1 (Homo sapiens, UniProt Q9H0H5); experiment: blockers of MgcRacGAP-driven Rac1 GTP hydrolysis – biochemical, ADP Hunter fluorescence, primary and confirmatory, confirmation (AID 624330); type: functional
# T6 sequence (Q9H0H5 whole entry): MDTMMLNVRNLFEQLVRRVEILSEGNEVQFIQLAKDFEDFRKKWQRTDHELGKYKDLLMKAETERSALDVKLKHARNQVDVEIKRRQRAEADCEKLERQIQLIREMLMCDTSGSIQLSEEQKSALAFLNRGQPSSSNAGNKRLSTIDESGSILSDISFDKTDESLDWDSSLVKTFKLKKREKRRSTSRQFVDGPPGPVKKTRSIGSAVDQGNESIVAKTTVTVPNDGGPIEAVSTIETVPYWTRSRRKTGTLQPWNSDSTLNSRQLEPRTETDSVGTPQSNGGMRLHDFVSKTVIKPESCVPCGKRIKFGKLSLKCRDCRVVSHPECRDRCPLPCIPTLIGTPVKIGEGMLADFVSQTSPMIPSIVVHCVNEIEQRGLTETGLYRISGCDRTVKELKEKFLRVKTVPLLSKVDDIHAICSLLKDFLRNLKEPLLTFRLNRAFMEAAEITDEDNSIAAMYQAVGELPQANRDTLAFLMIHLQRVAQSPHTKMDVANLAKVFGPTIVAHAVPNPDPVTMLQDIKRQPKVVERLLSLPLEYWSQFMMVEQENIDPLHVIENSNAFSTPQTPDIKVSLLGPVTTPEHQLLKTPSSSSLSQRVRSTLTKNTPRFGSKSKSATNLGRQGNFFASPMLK
# Chain of Large T antigen (P03070 whole entry): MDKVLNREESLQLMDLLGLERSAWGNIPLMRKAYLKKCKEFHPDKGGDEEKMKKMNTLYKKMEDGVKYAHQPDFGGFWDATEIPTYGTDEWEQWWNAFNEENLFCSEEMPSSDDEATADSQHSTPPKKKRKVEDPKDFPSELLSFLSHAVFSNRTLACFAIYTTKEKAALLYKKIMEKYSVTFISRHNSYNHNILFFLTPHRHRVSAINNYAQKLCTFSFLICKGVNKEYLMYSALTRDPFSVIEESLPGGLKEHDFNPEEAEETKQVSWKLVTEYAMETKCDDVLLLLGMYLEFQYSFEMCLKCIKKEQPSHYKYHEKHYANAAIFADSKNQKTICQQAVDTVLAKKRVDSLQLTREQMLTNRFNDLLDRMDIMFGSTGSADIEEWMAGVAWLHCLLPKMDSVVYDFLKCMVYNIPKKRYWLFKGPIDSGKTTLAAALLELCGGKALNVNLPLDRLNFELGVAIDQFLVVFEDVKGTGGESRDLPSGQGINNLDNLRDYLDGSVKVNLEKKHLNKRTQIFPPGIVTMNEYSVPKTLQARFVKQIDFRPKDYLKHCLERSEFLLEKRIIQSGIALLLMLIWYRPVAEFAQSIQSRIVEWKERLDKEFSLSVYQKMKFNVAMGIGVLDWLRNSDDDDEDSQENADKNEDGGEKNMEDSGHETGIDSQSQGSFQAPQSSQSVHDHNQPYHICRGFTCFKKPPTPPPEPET
smiles,measurement,setting,value
O=C1NC(=S)N(c2ccccc2F)C(=O)/C1=C/Nc1ccc(N2CCOCC2)cc1,IC50,Large T antigen,4.54 µM (active)
Cc1ccc2cc(C=C3C(=O)NC(=O)NC3=O)c(O)nc2c1,IC50,Large T antigen,> 100 µM (active)
same,IC50,Genome polyprotein,79 µM (active)
COC(=O)CC1C(=O)NCCN1C(=S)Nc1cccc(C)c1 (centres undefined),IC50,Coagulation factor XII,> 50 µM (inactive)
O=C(c1ccc2ncsc2c1)N1CCN(c2ccc(O)cc2)CC1,AC50,Cytochrome P450 2C9,1.78 µM (inconclusive)
same,AC50,Cytochrome P450 3A4,3.55 µM (inconclusive)
same,IC50,Large T antigen,14.4 µM (active)
same,AC50,Cytochrome P450 2C19,20 µM (inconclusive)
CC(C)c1cccc(-c2ccc3c(c2)S(=O)(=O)c2cccc(C(=O)O)c2C3=O)c1,IC50,Genome polyprotein,66.2 µM (active)
O=C(CN=C(S)N(Cc1ccccc1)Cc1ccccc1F)NCCc1ccccc1,IC50,Coagulation factor XII,> 50 µM (inactive)
CCNc1ccc(N=Nc2c(C)n(C)n(-c3ccccc3)c2=O)cc1,IC50,Large T antigen,7.88 µM (active)
Nc1nc(-c2cccs2)c(NC(=O)c2ccccc2)s1,IC50,Large T antigen,23.2 µM (active)
same,EC50,[1],23.8 µM (active)
same,EC50,[2],27.4 µM (active)
Cc1ccc2nc(NC(=O)C3CCCN(S(=O)(=O)c4cccc5nsnc45)C3)sc2c1 (centres undefined),CC50,[3],29.4 µM (active)
same,IC50,Coagulation factor XII,> 50 µM (inactive)
O=C(NNc1cc(Br)c(O)c(Br)c1)c1ccccc1,AC50,[4],0.192 µM (active)
same,IC50,Genome polyprotein,63.2 µM (active)
COCCNC(=O)CC(NS(=O)(=O)c1ccc(C)cc1)c1ccco1 (centres undefined),IC50,Coagulation factor XII,> 50 µM (inactive)
CC(=O)Nc1ccc(NC(=O)CSc2ncnn2-c2ccccc2)cc1,AC50,Cytochrome P450 2C9,12.6 µM (inconclusive)
same,AC50,Cytochrome P450 3A4,28.2 µM (inconclusive)
same,IC50,Coagulation factor XII,> 50 µM (inactive)
same,AC50,Cytochrome P450 1A2,28.2 µM (inconclusive)
Cc1sc(NC(=O)c2ccco2)c(CN2CCN(c3ccc(F)cc3)CC2)c1C,IC50,Coagulation factor XII,> 50 µM (inactive)
Cc1c(C(=O)N2CCOCC2)sc2ncnc(N3CCc4ccccc4C3)c12,EC50,[5],> 112 µM (not active)
same,EC50,[6],> 112 µM (not active)
same,IC50,Coagulation factor XII,> 50 µM (inactive)
CC1CCOC2(O1)C(=O)Nc1ccccc12 (centres undefined),IC50,Coagulation factor XII,> 50 µM (inactive)
O=C(N/N=C/c1cc(Cl)cc([N+](=O)[O-])c1O)C(O)(c1ccccc1)c1ccccc1,EC50,[7],40.2 µM (active)
same,EC50,Streptococcus,7.21 µM (active)
same,EC50,Streptokinase A,> 150 µM (not active)
same,EC50,[8],3.8 µM (active)
same,EC50,[9],> 300 µM (not active)
O=C1NCCOC(=O)[C@@H](Cc2ccc(F)cc2)CC/C=C/C[C@@H]1CC(=O)N(CCO)Cc1ccccc1,AC50,[10],> 70 µM (inactive)
same,AC50,[11],29.6 µM (active)
O=C(N/N=C/c1ccc(O)c(O)c1)c1cccc(S(=O)(=O)N2CCCCC2)c1,IC50,[12],85.3 µM (active)
same,IC50,Large T antigen,4.75 µM (active)
C/N=c1\scc(C)n1/N=C/c1ccc(O)cc1,IC50,[12],20.9 µM (active)
same,IC50,Large T antigen,8.35 µM (active)
